Laboratory results as given in patent US20250228832A1, “METHODS FOR TREATING DISORDERS AMELIORATED BY MUSCARINIC RECEPTOR ACTIVATION” (KARUNA THERAPEUTICS, INC., priority 2022, published 2025).
Like-named read-outs stand apart in the source and are kept apart here.

Molecular target: T1, human M4 receptor (Homo sapiens, UniProt P08173)
T1 construct: expressed in transfected cells
T1 sequence (P08173 1-479): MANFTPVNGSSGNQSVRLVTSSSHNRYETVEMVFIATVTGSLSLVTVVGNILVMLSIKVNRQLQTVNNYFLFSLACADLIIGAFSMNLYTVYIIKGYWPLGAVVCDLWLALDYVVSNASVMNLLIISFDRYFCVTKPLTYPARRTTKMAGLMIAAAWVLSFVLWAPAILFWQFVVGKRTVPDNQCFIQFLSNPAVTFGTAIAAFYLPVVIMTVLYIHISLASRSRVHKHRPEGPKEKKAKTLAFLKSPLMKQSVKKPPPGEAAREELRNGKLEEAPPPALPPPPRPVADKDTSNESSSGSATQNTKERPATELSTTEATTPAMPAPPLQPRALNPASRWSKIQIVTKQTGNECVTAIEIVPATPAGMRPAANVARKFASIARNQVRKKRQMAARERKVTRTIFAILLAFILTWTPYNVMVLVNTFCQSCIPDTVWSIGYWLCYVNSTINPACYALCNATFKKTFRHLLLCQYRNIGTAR
Experiment: SPA GTP (GTPgS) binding curve shift assay, M4
Type: biochemical
Description: Membranes were prepared for GTPgS binding assays from CHO-K1 cells stably expressing human M2 or human M4 receptors. Cells were grown in 5-layer cell culture flasks. Cells were washed with 50 mL of PBS and then dissociated with 0.05% trypsin. Dissociated cells were then collected by centrifugation at 650×g for 8 min at 4° C. Pellets were rewashed in PBS by centrifugation and resuspended in 30 mL of 20 mM HEPES, 10 mM EDTA, pH 7.4. After sitting on ice for 30 min, membranes were collected by centrifugation at 50000×g for 15 min at 4° C., resuspended in 30 mL of 20 mM HEPES, 0.1 mM EDTA, pH 7.4, and collected again by centrifugation. Pellets were then washed twice by centrifugation in 30 mL of 20 mM HEPES, pH 7.4, and stored at −80° C. until the day of the assay. On the day of the assay, pellets were thawed on ice and resuspended in 1 mL of 20 mM HEPES, pH 7.4, 10 mM MgCl2, and 100 mM NaCl using Dounce homogenization.
According to Promega guidelines, membrane protein concentration was determined by BCA protein assay (Promega, Madison, WI).
On the day of the assay, serial dilutions of test PAM compounds were brought up in assay buffer (20 mM HEPES, 10 mM MgCl2; see Table 4 for NaCl concentrations) at four times the final assay concentration. […] of membrane homogenates (containing […] of membrane protein) were prepared in assay buffer supplemented with GDP at 4× final assay concentration (see Table 4 for GDP concentrations) and dispensed into 96 well polypropylene, U-bottom Greiner plates. Membrane plates were incubated for 10 min at room temperature with gentle shaking. Then, 25 μL of test compounds were added to assay plates. Plates were then incubated, with shaking, for an additional 10-15 min. Then, 25 μL of diluted agonists serially diluted in assay buffer at 4× final assay concentration was added to assay plates. Plates were then incubated, with shaking, for an additional 10-15 min. Next, […] of 0.4 nM ^35S-GTP (Perkin Elmer, Waltham, MA) in assay buffer was added to assay mixtures. The binding reaction was left on the shaker for 1 h at room temperature. Membranes in assay reactions were then transferred to GF/C filter plates (UniFilter, Perkin Elmer) and washed three times using FilterMate Harvester (Perkin Elmer) with cold assay buffer containing no GDP. Filter plates were then dried at 40° C. overnight, and […] of Beta Plate Scintillation liquid was added. Plates were top and bottom sealed before being read on the TopCount scintillation counter (Perkin Elmer, Waltham, MA).
Raw data for all assays was transmitted directly from plate readers into the Beacon database for processing. All assay plates contained positive and negative control wells for data normalization and scaling. […] All control wells contained DMSO at a final assay concentration that matched the test compound wells.
For GTPgS assays, the negative control wells were defined as 0% response. The highest response in a plate was scaled to 1, representing 100% response. Data from test compound wells was scaled to these controls and are reported as % control values. This was done to allow for subsequent GraphPad cooperativity analysis, setting the maximal response at no more than 1.

[1] = Emraclidine concentration 41.2 nM, read-out: Emax
[2] = Emraclidine concentration 123 nM, read-out: Emax
[3] = Emraclidine concentration 370 nM
[4] = Emraclidine concentration 1110 nM, read-out: Emax
[5] = Emraclidine concentration 3330 nM, read-out: Emax
[6] = MK-4710 concentration 41.2 nM, read-out: Emax
[7] = MK-4710 concentration 123 nM, read-out: Emax
[8] = MK-4710 concentration 1110 nM, read-out: Emax
[9] = MK-4710 concentration 3330 nM, read-out: Emax

| SMILES | EC50 (Emraclidine concentration 0 nM) [nM] | Emax (Emraclidine concentration 0 nM) [%] | Emax [1] [%] | Emax [2] [%] | Emax at […] [3] [%] | Emax [4] [%] | Emax [5] [%] | Emax at […] (Emraclidine concentration […]) [%] | α (cooperativity, affinity shift) (M4 PAM Emraclidine) | β (cooperativity, efficacy shift) (M4 PAM Emraclidine) | τ (agonist pharmacology) (M4 PAM Emraclidine) | α (cooperativity, affinity shift) (M4 PAM MK-4710) | β (cooperativity, efficacy shift) (M4 PAM MK-4710) | Emax (MK-4710 concentration 0 nM) [%] | Emax [6] [%] | Emax [7] [%] | Emax at […] (MK-4710 concentration 370 nM) [%] | Emax [8] [%] | Emax [9] [%] | Emax at […] (MK-4710 concentration […]) [%] | other results |
| --- | --- | --- | --- | --- | --- | --- | --- | --- | --- | --- | --- | --- | --- | --- | --- | --- | --- | --- | --- | --- | --- |
| CCCCCOc1nsnc1C1=CCCCN1C [KTX-517, 3-(1-methyl-1,4,5,6-tetrahydropyridin-2-yl)-4-(pentyloxy)-1,2,5-thiadiazole] | 1.6 | 2.6 | 17.8 | 29.6 | 46.5 | 62.4 | 66.8 | 10.6 | 3.0 | 32.3 | 0.6 | 1.0 | 1395.0 | 12.6 | 27.3 | 34.3 | 53.4 | 75.1 | 87.1 | 20.4 | τ (agonist pharmacology) (M4 PAM MK-4710): 0.8; EC50 (MK-4710 concentration 0 nM): 548 nM; EC50 (MK-4710 concentration 41.2 nM): 2.3 nM; EC50 (MK-4710 concentration 123 nM): 1.4 nM; EC50 (MK-4710 concentration 370 nM): 2.1 nM; EC50 (MK-4710 concentration 1110 nM): 2.3 nM; EC50 (MK-4710 concentration 3330 nM): 1.5 nM; EC50 (MK-4710 concentration […]): 8.7 nM |
| CCCCCCCOc1nsnc1C1=CCCCN1C [KTX-593, 3-(heptyloxy)-4-(1-methyl-1,4,5,6-tetrahydropyridin-2-yl)-1,2,5-thiadiazole] | 12.7 | 14.3 | 24.5 | 43.9 | 60.1 | 76.8 | 84 | 24.2 | 2.4 | 56.3 | 1.5 | 1.0 | 1051018.0 | 14.0 | 35.9 | 41.8 | 59.7 | 80 | 88.1 | 26 | τ (agonist pharmacology) (M4 PAM MK-4710): 381.2; EC50 (MK-4710 concentration 0 nM): 44.7 nM |
| CC1OC2(CS1)CN1CCC2CC1 (stereo not drawn) [cevimeline, Cevimeline, reference compound] | 1300 | 4.0 | 13.2 | 28 | 49.2 | 73.3 | 86.3 | 10.6 | 1.0 | 57.2 | 0.4 | 1.0 | 136.5 | 6.4 | 20.2 | 26.6 | 42.1 | 68.1 | 83.6 | 14.4 | τ (agonist pharmacology) (M4 PAM MK-4710): 0.1; EC50 (MK-4710 concentration 0 nM): 3010 nM |
| CCCCCCOc1nsnc1C1=CCCN(C)C1 [xanomeline, reference compound] | – | 27.2 | 31.9 | 38.1 | 60 | 78.7 | 89.4 | 28.7 | – | – | 1.4 | – | – | 19.7 | 29.7 | 38.5 | 55 | 70.6 | 80.5 | 25.1 | – |
